Results taken from ChEMBL document CHEMBL3232986, “Identification of a novel series of potent HCV NS5B Site I inhibitors” (Bioorg Med Chem Lett, 2014).

Columns and labels:
[1] = Inhibition of HCV genotype 1b wild type NS5B polymerase using biotinylated oligo dT12 primer as substrate after 4 hrs in presence of [3H]UTP; parameters: species or system Hepatitis C virus subtype 1b
Hepatitis C virus = test: Antiviral activity against HCV genotype 1a H77c infected in human HuH7 cells after 3 days by luciferase reporter gene assay; type: functional, cell-based, Hepacivirus hominis; details: Huh-7, 72 h
[2] = Half life in dog liver microsomes; type: ADME, Canis lupus familiaris
[3] = Half life in monkey liver microsomes; type: ADME, Macaca mulatta; details: rhesus monkey
[4] = Cytotoxicity against human HuH7 cells after 4 hrs by CellTitre-Blue assay; type: cell-based, Huh-7
[5] = Inhibition of CYP (unknown origin); type: ADME; details: human
Liver microsome = test: Metabolic stability in human liver microsomes; type: ADME

Row | IC50 [1] | EC50 (Hepatitis C virus) | half-life [2] | half-life [3] | inhibition (INH) [5] | Stability (Liver microsome) | Structure (SMILES) | CC50 at 4 h [4]
1 | 3 nM | 12 nM | 22 min | 24 min |  |  | COc1ccc2c(c1)[C@@H]1C[C@]1(C(=O)N1CC34CCC3(CN(C(=O)N(C)C)C4)C1)Cn1c-2c(C2CCCCC2)c2ccc(C(=O)NS(=O)(=O)C(C)C)cc21 (some centres not stated) | 16000 nM
2 | 3 nM | 6 nM |  |  | Active |  | COc1ccc2c(c1)[C@@H]1C[C@]1(C(=O)N1CC34CCC3(C1)CN(S(=O)(=O)C(C)C)C4)Cn1c-2c(C2CCCCC2)c2ccc(C(=O)NS(=O)(=O)N(C)C)cc21 (some centres not stated) | 5000 nM
3 |  | 15 nM |  |  |  | Unstable | CCOCCN1CC23CCC2(C1)CN(C(=O)[C@]12C[C@H]1c1cc(OC)ccc1-c1c(C4CCCCC4)c4ccc(C(=O)NS(=O)(=O)C(C)C)cc4n1C2)C3 (some centres not stated) | 10000 nM
